One assay deals with T1, thrombin (Bos taurus, UniProt P00735).
T1 construct: clotting of bovine fibrinogen
The experiment in a line: fibrinogen coagulation time (prolongation by a factor of two). In kind it is biochemical. The note with it: pH 7.4, TABLE 2 (Sample Nos. 1-14, own numbering); bovine fibrinogen, thrombin 5 units/ml, pH 7.4, 25° C; read-out: Concentration required to prolong the coagulation time by a factor of two. On the procedure: The measurement of the fibrinogen coagulation time was conducted as follows:
Immediately after mixing, the reaction mixture was transferred from the ice bath to a bath maintained at 25° C. Coagulation times were taken as the period between the time of transference to the 25° C bath and the time of the first appearance of fibrin threads. […] The term "concentration required to prolong the coagulation time by a factor of two" is the concentration of an active ingredient required to prolong the normal coagulation time 50-55 seconds to 100-110 seconds.
As to `CCCCN(CC(=O)O)C(=O)[C@H](CCCNC(=N)N)NS(=O)(=O)c1ccc(OC)c(Cc2ccccc2)c1` [compound 2], the IC (2-fold clotting time) came out at 38 µM.

On to `CCCCN(CC(=O)O)C(=O)[C@H](CCCNC(=N)N)NS(=O)(=O)c1ccc(OC)c(C2CCCCC2)c1` [compound 3, N^2-(3-cyclohexyl-4-methoxyphenylsulfonyl)-L-arginyl-N-butylglycine], for which the IC (2-fold clotting time) amounted to 5 µM.

The assay is the same for the next values; noted with them: pH 7.4, first table (Sample Nos. 1-235); bovine fibrinogen, thrombin 5 units/ml, pH 7.4, 25° C; read-out: Concentration required to prolong the coagulation time by a factor of two.
With `COCCN(CCC(=O)O)C(=O)[C@H](CCCNC(=N)N)NS(=O)(=O)c1ccc2cc(OC)c(OC)cc2c1` [compound 15], the IC (2-fold clotting time) stood at 2.5 µM. Turning to `COc1cc2ccc(S(=O)(=O)N[C@@H](CCCNC(=N)N)C(=O)N(CC(=O)O)Cc3ccccc3)cc2cc1OC` [compound 50], the IC (2-fold clotting time) turned out to be 2.5 µM.

For `Cc1ccc2ccc(S(=O)(=O)N[C@@H](CCCNC(=N)N)C(=O)N3CCC(C(C)C)CC3C(=O)O)cc2c1` (stereo partly drawn) [compound 175], the IC (2-fold clotting time) was 0.1 µM. Same read-out and setting: then `COc1ccc2ccc(S(=O)(=O)N[C@@H](CCCNC(=N)N)C(=O)N3CCOCC3C(=O)O)cc2c1` (stereo partly drawn) [compound 189], with 2 µM.

The values above are taken from patent US4097591A, “N^2 -arylsulfonyl-L-argininamides and the pharmaceutically acceptable salts thereof” (Mitsubishi Chemical Industries Limited, priority 1977, dated 1978).
